{"source": "patent US20070184082A1", "about": "“Biocompatible polymeric delivery systems for sustained release of quinazolinones” (priority 2004, published 2007)", "key": {"healthy male volunteers": {"tested_on": "healthy male volunteers", "test": "Phase I clinical study of safety of oral halofuginone, three dosing regimens", "format": "in vivo, human", "experimental": "The Phase I clinical study described below was conducted in the PPD Development Clinical Pharmacology Unit, 72 Hospital Close, Evington, Leicester, United Kingdom, between September 2001 and October 2001. The objective of this study was to compare the safety and tolerability of halofuginone when a daily dose of 2 mg is administered using three different dosing regimens.\nA single-center, open label, three-period, phase I study was performed. Eight subjects attended the PPD Development Clinic for pre-study screening […]. Visits at the Clinic were as follows:\nSubjects were admitted to the Clinic on the evening of Day-1. After an overnight fast, subjects received an oral dose of 0.25 mg halofuginone with a standard snack. Each subject received a total of eight doses at 3-hour intervals starting at approximately 10:00 h on Day 1, and remained resident in the Clinic until the morning of Day 3 [after the 24 hour pharmacokinetic (PK) sample]. They returned to the Clinic for an out-patient visit on the morning of Day 4 to provide a PK blood sample. There was a washout of at least 6 days after the last dose in Period 1 before the start of dosing in Period 2.\nSubjects were admitted to the Clinic at approximately 07:00 h on Day 1. Subjects were provided with breakfast and then fasted until the first dose. Subjects received an oral dose of 0.5 mg halofuginone with a standard meal at 6-hour intervals starting at approximately 13:00 h (a total of four doses) and remained resident in the Clinic until the morning of Day 3 (after the 24 hour PK sample). They returned to the Clinic for an out-patient visit on the morning of Day 4 to provide a PK blood sample. There was a washout of at least 6 days after the last dose in Period 2 before the start of dosing in Period 3.\nSubjects were admitted to the Clinic on the evening of Day-1. After an overnight fast, subjects received a single oral dose of 2 mg halofuginone with breakfast at approximately 07:00 h on Day 1 and remained resident in the Clinic until the morning of Day 2 (after the 24 hour PK sample). They returned to the clinic for an out-patient visit on the morning of Day 3 to provide a PK blood sample.\nAdverse events (AEs) were monitored throughout the study period. Vital signs (including blood pressure, pulse rate and oral body temperature), electrocardiogram (ECG), physical examinations and routine laboratory safety analyses were conducted at the pre-study screening and at the post-study follow-up visits.\nEight healthy male Caucasian subjects were enrolled into the study. The mean age was 31.1 years (range 19-39 years), mean height was 176.6 cm (range 169-184 cm), mean weight was 78.9 kg (range 62.7-91.7 kg) and mean BMI was 25.2 kg/m^2 (range 21.9-27.9 kg/m^2). All subjects completed the study."}, "clinical": {"test": "clinical", "conditions": "human, in vivo, po, 2 mg", "experimental": "The present interim pharmacokinetic analysis was carried out by ASTER. Patients included were treated for solid tumour. On study Day 1 each patient received one oral dose of halofuginone, either 1 mg (one patient) or 2 mg (6 patients), and blood samples for pharmacokinetics were collected up to 72 hours (3 days) after dosing. Immediately after the collection of the 72 hour blood sample, patients started the multiple dose regimen consisting in morning daily dose administration of 1 mg (for subject No.1) or 2 mg (6 remaining patients) until study Day 15. Urine samples were collected over 48 hours after first dosing. Urine concentrations were only available for patients No.1, No.2, No.3 and No.4, and thus only 4 patients were included in the analysis of urine excretion data."}, "humans": {"tested_on": "humans", "test": "Maximum tolerated oral dose of halofuginone in humans", "conditions": "oral administration"}}}
{"smiles": "O=C(CC1NCCCC1O)Cn1cnc2cc(Br)c(Cl)cc2c1=O", "note": "(centres unmarked) [halofuginone, 7-bromo-6-chloro-3-[3-(3-hydroxy-2-piperidinyl)-2-oxopropyl]-4(3H)-quinazolinone]", "values": [{"measurement": "tolerability conclusion", "setting": "healthy male volunteers; 2 mg given as eight doses of 0.25 mg with a snack or 4 doses of 0.5 mg with a meal", "result": "safe and well tolerated"}, {"measurement": "treatment-emergent AEs considered moderate in severity", "setting": "healthy male volunteers; human, in vivo", "result": "two"}, {"measurement": "headache AEs", "setting": "healthy male volunteers; male, human, in vivo", "result": 3, "unit": "AEs"}, {"measurement": "nausea AEs", "setting": "healthy male volunteers; male, human, in vivo", "result": 13, "unit": "AEs"}, {"measurement": "time to resolution of all vomiting AEs and most nausea AEs", "setting": "healthy male volunteers; male, human, in vivo", "result": "1 h and 0.717 h"}, {"measurement": "total AEs reported", "setting": "healthy male volunteers; male, human, in vivo", "result": 29}, {"measurement": "treatment-emergent AEs", "setting": "healthy male volunteers; male, human, in vivo", "result": 28}, {"measurement": "treatment-emergent AEs considered mild", "setting": "healthy male volunteers; male, human, in vivo", "result": 26}, {"measurement": "tolerability conclusion", "setting": "healthy male volunteers; single dose of 2 mg with a meal", "result": "less well tolerated"}, {"measurement": "half-life", "setting": "clinical", "result": 37.2, "unit": "h"}, {"measurement": "maximum tolerated dose with no adverse effects observed", "setting": "humans", "result": 1, "unit": "mg/day"}]}
